The structures appear in SMILES notation. pEC50: −log10 of the molar value. Some results are limits rather than exact numbers.

The subject of test [1] is rHMPV-GFP (recombinant HMPV CAN97-83, MPV-GFP1). In words: HMPV antiviral assay (eGFP fluorescence in Vero E6 cells). Type of test: cell-based. The following applies: Vero C1008, 120 h, read-out: rHMPV-GFP EC50. The method, then:
HMPV antiviral activity was evaluated using a recombinant version of HMPV CAN97-83 engineered to contain the coding sequence for enhanced green fluorescence protein (eGFP) in the 3′ end of the virus genome (MPV-GFP1, ViraTree). Vero E6 cells (ATCC #CCL-7) were seeded at a density of 12,000 cells/100 μL/well into 96-well cell plates (VENDOR) one day prior to the assay. On the day of screening, the cell culture medium was aspirated from the wells and cells were washed twice with serum-free Eagle's Modified Essential Medium (EMEM, ATCC #) containing 1% penicillin-streptomycin (Invitrogen) (SF-EMEM). Cell washes were performed by dispensing 100 μL SF-EMEM per well and immediately aspirating the wash medium from the well. Following the second wash step, serum-free OptiMEM (Invitrogen, Cat No.) (SF-OptiMEM) containing 0.5 μg/mL TPCK-Trypsin (VENDOR) and 1% penicillin-streptomycin was added to the cells at 50 μL/well. Compounds were added into the 96-well plates using a JANUS automated liquid handling system (VENDOR). Compounds were initially diluted 1:50 into an intermediate 96-well plate containing SF-OptiMEM prior to transfer to the assay plate (25 μL/well). Each of the test compounds was tested in duplicate wells at final concentrations starting from 8 μM or 2 μM using ½ stepwise dilutions for a total of 8 points. Virus infection was performed by preparing a working stock of MPV-GFP1 at a multiplicity of infection (MOI) equal to 0.05/25 μL and aliquoting 25 μL of virus inoculum to the compound and positive control wells. SF-OptiMEM was added (25 μL/well) to the appropriate wells to serve as a virus-free negative control for the assay. The final DMSO concentration of all wells is 0.5%. Plates were incubated at 32° C., 5% CO2 for 5 days. After 5 days incubation, eGFP fluorescence intensity was measured at […] using a Spectramax i3X plate reader (VENDOR). Percent viral inhibition was calculated using the following equation: y=[[…]]×100 Where XQ is the fluorescence intensity measured in a well containing recombinant MPV-GFP1-infected, compound-treated cells and XP is the average fluorescence intensity measured in the wells containing untreated cells infected with recombinant virus. EC50 values were then calculated by non-linear regression using a four parameter curve logistic equation. The curve fit model employed was XLFit Dose Response One Site Model 200: y=(A+(B/(1+((x/C)^D)))) Where A is the minimum y value, B is the maximum y value, C is the log EC50 value, and D is the slope factor. The EC50 of each compound is listed in Table 2 and EC50 ranges are as follows: A<0.2 μM; B≥0.2 μM.

The subject of test [2] is Human RSV-A (“Long” strain). In words: RSV-A assay (CPE, ATPlite readout in Hep-2 cells). The following applies: human respiratory syncytial virus, 120 h; Hep-2 cells, MOI 0.1, 5-day incubation, ATPlite; read-out: Human RSV-A (“Long” strain) EC50. It is filed as cell-based. The text has this:
Hep-2 cells, (originally derived from tumors grown in irradiated-cortisonised weanling rats that had been injected with epidermoid carcinoma tissue from a person's larynx, but later found to be indistinguishable from HeLa cells by PCR DNA analysis), were used for the culturing of genotype A, “Long” strain RSV. Flasks were inoculated with RSV and viral stocks were collected once cytopathic effect (CPE) was greater than 90%. Viral stocks in 25% sucrose media were snap frozen using liquid nitrogen to increase viral stability. Viral stock titers were quantified by tissue culture infectious dose 50% (TCID50) using 8,000 cells per well and 3-fold viral dilutions across a 96-well plate, cultured for 4 days. Viral stock titers were also quantified by a plaque forming unit assay, as described elsewhere.
Following extensive parameter testing, the final assay is run as follows: Hep-2 cells are seeded into the inner 60 wells of a 96-well plate at 8,000 cells per well in a volume of 50 μL using Growth Media (DMEM without phenol red, 1% L-Glut, 1% Penn/Strep, 1% nonessential amino acids, 10% heat-inactivated FBS). 2-fold serial dilutions of control and test compounds are added to the wells in duplicate in a total volume of 25 μL. Viral stock is then added to the wells at a multiplicity of infection (MOI) of 0.1 in a volume of 25 μL, bringing the total volume of each well to 100 μL. The MOI is calculated using the PFU/mL, or TCID50 if unavailable. Each 96-well plate has a control column of 6 wells with cells and virus but no compound (negative control, max CPE), a column with cells but no compound or virus (positive control, minimum CPE), and a column with no cells or virus or compound (background plate/reagent control). The control wells with cells but no virus are given an additional […], of growth media containing an equal quantity of sucrose as those wells receiving the viral stock in order to keep consistent in media and volume conditions. The outer wells of the plate are filled with 125 μL of moat media (DMEM, 1% Penn/Strep) to act as a thermal and evaporative moat around the test wells. Following a 5-day incubation period, the plates are read using ATPlite (50 uL added per well), which quantifies the amount of ATP (a measure of cell health) present in each well. Assay plates are read using the Envision luminometer. […] EC50 ranges are as follows: A<0.2 μM; B≥0.2 μM.

One may read the pEC50 as the EC50 on a negative log10 scale, so that one unit is a factor of ten. As to `COc1cc(C(=O)NC[C@](O)(c2cc3c(c(-c4ccc(F)cc4)n2)OC[C@@]3(N)C(F)(F)F)C2CC2)cc2cccnc12` [Example 10], the negative-log EC50 (pEC50) in test [1] is less than 6.70; in test [2] it was greater than 6.70.
With `COc1cc(C(=O)NC[C@](O)(c2cc3c(c(-c4ccc(F)cc4)n2)OC[C@@]3(N)C(F)(F)F)C(F)(F)F)ccc1OC1CC1` [Example 1], the pEC50 in test [1] is less than 6.70; in test [2], greater than 6.70.
The corresponding values for `COC[C@](O)(CNC(=O)c1ccc(OC2CC2)c(OC)c1)c1cc2c(c(-c3ccc(F)cc3)n1)OC[C@@]2(N)C(F)(F)F` [Example 49, N—((S)-2-((R)-3-amino-7-(4-fluorophenyl)-3-(trifluoromethyl)-2,3-dihydrofuro[2,3-c]pyridin-5-yl)-2-hydroxy-3-methoxypropyl)-4-cyclopropoxy-3-methoxybenzamide] are less than 6.70 and greater than 6.70.
The like results for `COc1cc(C(=O)NC[C@](O)(c2cc3c(c(-c4ccc(F)cc4)n2)OC[C@@]3(N)C(F)(F)F)C(F)(F)F)cc2cccnc12` [Example 5, N—((S)-2-((R)-3-amino-7-(4-fluorophenyl)-3-(trifluoromethyl)-2,3-dihydrofuro[2,3-c]pyridin-5-yl)-3,3,3-trifluoro-2-hydroxypropyl)-8-methoxyquinoline-6-carboxamide] were, in that order, less than 6.70 and greater than 6.70.
With `COc1cc(C(=O)NC[C@](O)(c2cc3c(c(-c4ccc(F)cc4)n2)OC[C@@]3(N)C(F)(F)F)C2CC2)ccc1OC1CC1` [Example 9, N—((S)-2-((R)-3-amino-7-(4-fluorophenyl)-3-(trifluoromethyl)-2,3-dihydrofuro[2,3-c]pyridin-5-yl)-2-cyclopropyl-2-hydroxyethyl)-4-cyclopropoxy-3-methoxybenzamide], the negative logarithm of the EC50 (pEC50) in test [1] and in test [2] was greater than 6.70 each time.
In the case of `N[C@@]1(C(F)(F)F)COc2c1cc([C@@](O)(CNC(=O)c1cc(OC3CC3)c3ncccc3c1)C1CC1)nc2-c1ccc(F)cc1` [Example 11, N—((S)-2-((R)-3-amino-7-(4-fluorophenyl)-3-(trifluoromethyl)-2,3-dihydrofuro[2,3-c]pyridin-5-yl)-2-cyclopropyl-2-hydroxyethyl)-8-cyclopropoxyquinoline-6-carboxamide], the pEC50 in test [1] was less than 6.70; in test [2] it was greater than 6.70.
The corresponding values for `COc1cc(C(=O)NC[C@](O)(c2cc3c(c(-c4ccc(F)cc4)n2)OC[C@]3(N)C(F)(F)F)C(F)(F)F)cc2cccnc12` [Example 6, N—((S)-2-((S)-3-amino-7-(4-fluorophenyl)-3-(trifluoromethyl)-2,3-dihydrofuro[2,3-c]pyridin-5-yl)-3,3,3-trifluoro-2-hydroxypropyl)-8-methoxyquinoline-6-carboxamide] are less than 6.70 and greater than 6.70.
The corresponding values for `C[C@](O)(CNC(=O)c1ccc(OC2CC2)c(OC2CC2)c1)c1cc2c(c(-c3ccc(F)c(F)c3)n1)OC[C@@]2(N)C(F)(F)F` [Example 26, N—((S)-2-((R)-3-amino-7-(3,4-difluorophenyl)-3-(trifluoromethyl)-2,3-dihydrofuro[2,3-c]pyridin-5-yl)-2-hydroxypropyl)-3,4-dicyclopropoxybenzamide] are greater than 6.70 and greater than 6.70.
The corresponding values for `COc1cc(C(=O)NC[C@@](O)(c2cc3c(c(-c4ccc(F)cc4)n2)OC[C@]3(N)C(F)(F)F)C(F)(F)F)ccc1OC1CC1` [Example 4, N—((R)-2-((S)-3-amino-7-(4-fluorophenyl)-3-(trifluoromethyl)-2,3-dihydrofuro[2,3-c]pyridin-5-yl)-3,3,3-trifluoro-2-hydroxypropyl)-4-cyclopropoxy-3-methoxybenzamide] are less than 6.70 and less than 6.70.
Turning to `COc1cc(C(=O)NCC(C)c2cc3c(c(-c4ccc(F)c(F)c4)n2)OC[C@@]3(N)C(F)(F)F)ccc1OC1CC1` (stereo partly drawn) [Example 48], the negative logarithm of the EC50 (pEC50) in test [1] and in test [2] was less than 6.70 throughout.
Take `COc1cc(C(=O)NC[C@](C)(O)c2cc3c(c(-c4ccc(F)c(Cl)c4)n2)OC[C@@]3(N)C(F)(F)F)ccc1OC1CC1` [Example 24, N—((S)-2-((R)-3-amino-7-(3-chloro-4-fluorophenyl)-3-(trifluoromethyl)-2,3-dihydrofuro[2,3-c]pyridin-5-yl)-2-hydroxypropyl)-4-cyclopropoxy-3-methoxybenzamide]: the negative logarithm of the EC50 (pEC50) in test [1] and in test [2] was greater than 6.70 each time.
In the case of `COc1cc(C(=O)NC[C@](C)(O)c2cc3c(c(-c4ccc(F)c(F)c4)n2)OC[C@@]3(N)C(F)(F)F)ccc1OC1CC1` [Example 22, N—((S)-2-((R)-3-amino-7-(3,4-difluorophenyl)-3-(trifluoromethyl)-2,3-dihydrofuro[2,3-c]pyridin-5-yl)-2-hydroxypropyl)-4-cyclopropoxy-3-methoxybenzamide], the pEC50 in test [1] and in test [2] was greater than 6.70 in each case.
As for `COc1cc(C(=O)NC[C@](O)(c2cc3c(c(-c4ccc(F)cc4)n2)OC[C@@]3(NC(=O)COC(C)=O)C(F)(F)F)C(F)(F)F)ccc1OC1CC1` [Example 13, 2-(((R)-5-((S)-3-(4-cyclopropoxy-3-methoxybenzamido)-1,1,1-trifluoro-2-hydroxypropan-2-yl)-7-(4-fluorophenyl)-3-(trifluoromethyl)-2,3-dihydrofuro[2,3-c]pyridin-3-yl)amino)-2-oxoethyl acetate], the pEC50 in test [1] is less than 6.70; in test [2] it was greater than 6.70.
The corresponding values for `COc1cc(C(=O)NC[C@](O)(c2cc3c(c(-c4ccc(F)c(Cl)c4)n2)OC[C@@]3(N)C(F)(F)F)C2CC2)ccc1OC1CC1` [Example 25, N—((S)-2-((R)-3-amino-7-(3-chloro-4-fluorophenyl)-3-(trifluoromethyl)-2,3-dihydrofuro[2,3-c]pyridin-5-yl)-2-cyclopropyl-2-hydroxyethyl)-4-cyclopropoxy-3-methoxybenzamide] are greater than 6.70 and greater than 6.70.
On to `N[C@@]1(C(F)(F)F)COc2c1cc([C@@](O)(CNC(=O)c1cc(OC3CC3)c3nn(C4CC4)cc3c1)C1CC1)nc2-c1ccc(F)cc1` [Example 55c, N—((S)-2-((R)-3-amino-7-(4-fluorophenyl)-3-(trifluoromethyl)-2,3-dihydrofuro[2,3-c]pyridin-5-yl)-2-cyclopropyl-2-hydroxyethyl)-7-cyclopropoxy-2-cyclopropyl-2H-indazole-5-carboxamide], for which the negative logarithm of the EC50 (pEC50) in test [1] and in test [2] was greater than 6.70 in each case.

Source of the values: patent publication US11420976B2 (priority 2020, dated 2022).
